In patent US20260262643A1, “HERBICIDAL BENZOXAZINES” (FMC CORPORATION, priority 2022, published 2026):

Experiments:
barnyardgrass [1] = assay: Test C preemergence; assay type: in vivo, Echinochloa crusgalli; settings: 0 to 100 scale (0 no effect, 100 complete control); for Plant response rating, Barnyardgrass: Preemergence, visual rating after 10 days
Source text: (§1) Seeds of plant species selected from barnyardgrass (Echinochloa crusgalli), blackgrass (Alopecurus myosuroides), corn (Zea mays), foxtail, giant (giant foxtail, Setaria faberi), green foxtail (Setaria viridis), goosegrass (Eleusine indica), kochia (Bassia scoparia), oat, wild (wild oat, Avena fatua), pigweed, palmer (palmer amaranth, palmer pigweed, Amaranthus palmeri), Pigweed, Redroot (redroot pigweed, Amaranthus retroflexus), ragweed (common ragweed, Ambrosia artemisiifolia), ryegrass, Italian ([…] ryegrass, Lolium multiflorum), soybean (Glycine max), and wheat (Triticum aestivum) were planted into a blend of loam soil and sand and treated preemergence with a directed soil spray using test chemicals formulated in a non-phytotoxic solvent mixture which included a surfactant. At the same time, plants selected from these crops and weed species and also galium (catchweed bedstraw, Galium aparine) and horseweed (Erigeron canadensis) were planted in pots containing the same blend of loam soil and sand and treated with postemergence applications of test chemicals formulated in the same manner. Plants ranged in height from 2 to 10 cm and were in the one- to two-leaf stage for the postemergence treatment. Treated plants and untreated controls were maintained in a greenhouse for 10 days, after which time all treated plants were compared to untreated controls and visually evaluated for injury. Plant response ratings, summarized in Table C, are based on a 0 to 100 scale where 0 is no effect and 100 is complete control. A dash (-) response means no test result.

blackgrass [2] = assay: Test C preemergence; assay type: in vivo, Alopecurus myosuroides; settings: 0 to 100 scale (0 no effect, 100 complete control); for Plant response rating, Blackgrass: Preemergence, visual rating after 10 days
Source text: as §1

green foxtail [3] = assay: Test C preemergence; assay type: in vivo, Setaria viridis; settings: 0 to 100 scale (0 no effect, 100 complete control); for Plant response rating, Foxtail, Green: Preemergence, visual rating after 10 days
Source text: as §1

kochia [4] = assay: Test C preemergence; assay type: in vivo, Bassia scoparia; settings: 0 to 100 scale (0 no effect, 100 complete control); for Plant response rating, Kochia: Preemergence, visual rating after 10 days
Source text: as §1

pigweed, palmer [5] = assay: Test C preemergence; assay type: in vivo, Amaranthus palmeri; settings: 0 to 100 scale (0 no effect, 100 complete control); for Plant response rating, Pigweed, Palmer: Preemergence, visual rating after 10 days
Source text: as §1

ragweed [6] = assay: Test C preemergence; assay type: in vivo, Ambrosia artemisiifolia; settings: 0 to 100 scale (0 no effect, 100 complete control); for Plant response rating, Ragweed: Preemergence, visual rating after 10 days
Source text: as §1

ryegrass, Italian [7] = assay: Test C preemergence; assay type: in vivo, Lolium multiflorum; settings: 0 to 100 scale (0 no effect, 100 complete control); for Plant response rating, Ryegrass, Italian: Preemergence, visual rating after 10 days
Source text: as §1

barnyardgrass [8] = assay: Test C postemergence; assay type: in vivo, Echinochloa crusgalli
Source text: as §1

blackgrass [9] = assay: Test C postemergence; assay type: in vivo, Alopecurus myosuroides; settings: 10 days
Source text: as §1

green foxtail [10] = assay: Test C postemergence; assay type: in vivo, Setaria viridis; settings: Postemergence, 1000 g ai/ha, 10 days, visual 0 to 100 scale (0 no effect, 100 complete control)
Source text: as §1

kochia [11] = assay: Test C postemergence; assay type: in vivo, Bassia scoparia; settings: 10 days
Source text: as §1

pigweed, palmer [12] = assay: Test C postemergence; assay type: in vivo, Amaranthus palmeri; settings: 10 days
Source text: as §1

ragweed [13] = assay: Test C postemergence; assay type: in vivo, Ambrosia artemisiifolia; settings: 10 days
Source text: as §1

ryegrass, Italian [14] = assay: Test C postemergence; assay type: in vivo, Lolium multiflorum; settings: 10 days
Source text: as §1

horseweed = assay: Test C postemergence; assay type: in vivo, Erigeron canadensis; settings: 10 days
Source text: as §1

galium = assay: Test C postemergence; assay type: in vivo, Galium aparine; settings: 10 days
Source text: as §1

corn [15] = assay: Test C preemergence; assay type: in vivo, Zea mays; settings: 0 to 100 scale (0 no effect, 100 complete control)
Source text: as §1

oat, wild [16] = assay: Test C preemergence; assay type: in vivo, Avena fatua; settings: 0 to 100 scale (0 no effect, 100 complete control)
Source text: as §1

soybean [17] = assay: Test C preemergence; assay type: in vivo, Glycine max; settings: 0 to 100 scale (0 no effect, 100 complete control)
Source text: as §1

wheat [18] = assay: Test C preemergence; assay type: in vivo, Triticum aestivum; settings: 0 to 100 scale (0 no effect, 100 complete control)
Source text: as §1

corn [19] = assay: Test C postemergence; assay type: in vivo, Zea mays; settings: 10 days
Source text: as §1

oat, wild [20] = assay: Test C postemergence; assay type: in vivo, Avena fatua; settings: 10 days
Source text: as §1

soybean [21] = assay: Test C postemergence; assay type: in vivo, Glycine max; settings: 10 days
Source text: as §1

wheat [22] = assay: Test C postemergence; assay type: in vivo, Triticum aestivum; settings: 10 days
Source text: as §1

[23] = Postemergence, 1000 g ai/ha, 0 to 100 scale, 0 no effect, 100 complete control
[24] = Postemergence, 1000 g ai/ha, visual 0 to 100 scale (0 no effect, 100 complete control)
[25] = Test C, preemergence, 125 g ai/ha
[26] = Preemergence, 500 g ai/ha, visual rating after 10 days
[27] = 125 g ai/ha, postemergence, 0 to 100 scale, 0 no effect, 100 complete control
[28] = Postemergence, 500 g ai/ha, visual 0 to 100 scale (0 no effect, 100 complete control)

With C[C@H]1CN(C(=O)c2cccc(-n3cccc3)c2)c2cccc(Cl)c2O1 [Compound 222] the “Plant response rating, Barnyardgrass” value (barnyardgrass [1]; 1000 g ai/ha) was 50, the “Plant response rating, Blackgrass” value (blackgrass [2]; 1000 g ai/ha) was 70 and the “Plant response rating, Foxtail, Green” value (green foxtail [3]; 1000 g ai/ha) was 100. The “Plant response rating, Kochia” value (kochia [4]; 1000 g ai/ha) was 20, the “Plant response rating, Pigweed, Palmer” value (pigweed, palmer [5]; 1000 g ai/ha) was 50 and the “Plant response rating, Ragweed” value (ragweed [6]; 1000 g ai/ha) was 0. For the same compound, the “Plant response rating, Ryegrass, Italian” value (ryegrass, Italian [7]; 1000 g ai/ha) was 70, the “Plant response rating, Barnyardgrass” value (barnyardgrass [8]; [23]) was 20 and the “Plant response rating, Blackgrass” value (blackgrass [9]; [24]) was 50. The “Plant response rating, Foxtail, Green” value (green foxtail [10]) was 40, the “Plant response rating, Kochia” value (kochia [11]; [24]) was 60 and the “Plant response rating, Pigweed, Palmer” value (pigweed, palmer [12]; [24]) was 60. For the same compound, the “Plant response rating, Ragweed” value (ragweed [13]; [24]) was 0, the “Plant response rating, Ryegrass, Italian” value (ryegrass, Italian [14]; [24]) was 50 and the “Plant response rating, Horseweed” value (horseweed; [24]) was 0.

Cc1cc(-c2cccc(C(=O)N3C[C@H](C)Oc4c(C)cccc43)c2)cs1 [Compound 246] was tested, and the “Plant response rating, Barnyardgrass” value (barnyardgrass [1]; 1000 g ai/ha) was 0, the “Plant response rating, Blackgrass” value (blackgrass [2]; 1000 g ai/ha) was 0 and the “Plant response rating, Foxtail, Green” value (green foxtail [3]; 1000 g ai/ha) was 0. The “Plant response rating, Kochia” value (kochia [4]; 1000 g ai/ha) was 0, the “Plant response rating, Pigweed, Palmer” value (pigweed, palmer [5]; 1000 g ai/ha) was 0 and the “Plant response rating, Ryegrass, Italian” value (ryegrass, Italian [7]; 1000 g ai/ha) was 30. For the same compound, the “Plant response rating, Barnyardgrass” value (barnyardgrass [8]; [23]) was 0, the “Plant response rating, Blackgrass” value (blackgrass [9]; [24]) was 0 and the “Plant response rating, Foxtail, Green” value (green foxtail [10]) was 0. The “Plant response rating, Kochia” value (kochia [11]; [24]) was 20, the “Plant response rating, Pigweed, Palmer” value (pigweed, palmer [12]; [24]) was 0 and the “Plant response rating, Ragweed” value (ragweed [13]; [24]) was 30. The “Plant response rating, Ryegrass, Italian” value (ryegrass, Italian [14]; [24]) was 0, the “Plant response rating, Galium” value (galium; [24]) was 0 and the “Plant response rating, Horseweed” value (horseweed; [24]) was 30.

For Cc1cccc2c1O[C@@H](C)CN2C(=O)c1cccc(-n2cnc(N(C)C)n2)c1 [Compound 226], the “Plant response rating, Barnyardgrass” value (barnyardgrass [1]; 500 g ai/ha) was 90, the “Barnyardgrass plant response rating” value (barnyardgrass [1]; [25]) was 50 and the “Plant response rating, Blackgrass” value (blackgrass [2]; 500 g ai/ha) was 60. For the same compound, the “Blackgrass plant response rating” value (blackgrass [2]; [25]) was 30, the “Plant response rating, Corn” value (corn [15]; [26]) was 0 and the “Corn plant response rating” value (corn [15]; [25]) was 0. For the same compound, the “Plant response rating, Foxtail, Green” value (green foxtail [3]; 500 g ai/ha) was 100, the “Foxtail, Green plant response rating” value (green foxtail [3]; [25]) was 100 and the “Plant response rating, Kochia” value (kochia [4]; 500 g ai/ha) was 90. The “Kochia plant response rating” value (kochia [4]; [25]) was 50, the “Plant response rating, Oat, Wild” value (oat, wild [16]; [26]) was 60 and the “Oat, Wild plant response rating” value (oat, wild [16]; [25]) was 40. For the same compound, the “Plant response rating, Pigweed, Palmer” value (pigweed, palmer [5]; 500 g ai/ha) was 90, the “Pigweed, Palmer plant response rating” value (pigweed, palmer [5]; [25]) was 50 and the “Plant response rating, Ragweed” value (ragweed [6]; 500 g ai/ha) was 20. For the same compound, the “Ragweed plant response rating” value (ragweed [6]; [25]) was 20, the “Plant response rating, Ryegrass, Italian” value (ryegrass, Italian [7]; 500 g ai/ha) was 70 and the “Ryegrass, Italian plant response rating” value (ryegrass, Italian [7]; [25]) was 70. The “Plant response rating, Soybean” value (soybean [17]; [26]) was 30, the “Soybean plant response rating” value (soybean [17]; [25]) was 20 and the “Plant response rating, Wheat” value (wheat [18]; [26]) was 10. For the same compound, the “Wheat plant response rating” value (wheat [18]; [25]) was 0, the “Plant response rating, Barnyardgrass” value (barnyardgrass [8]; 125 g ai/ha, postemergence, 10 days, 0 to 100 scale, 0 no effect, 100 complete control) was 50 and the “Plant response rating, Barnyardgrass” value (barnyardgrass [8]; Postemergence, 500 g ai/ha, 10 days, visual 0 to 100 scale (0 no effect, 100 complete control)) was 80. For the same compound, the “Plant response rating, Blackgrass” value (blackgrass [9]; [27]) was 60, the “Plant response rating, Blackgrass” value (blackgrass [9]; [28]) was 90 and the “Plant response rating, Corn” value (corn [19]; [27]) was 20. The “Plant response rating, Corn” value (corn [19]; [28]) was 60, the “Plant response rating, Kochia” value (kochia [11]; [27]) was 70 and the “Plant response rating, Kochia” value (kochia [11]; [28]) was 80. The “Plant response rating, Oat, Wild” value (oat, wild [20]; [27]) was 10, the “Plant response rating, Oat, Wild” value (oat, wild [20]; [28]) was 60 and the “Plant response rating, Pigweed, Palmer” value (pigweed, palmer [12]; [27]) was 40. The “Plant response rating, Pigweed, Palmer” value (pigweed, palmer [12]; [28]) was 80, the “Plant response rating, Ragweed” value (ragweed [13]; [27]) was 30 and the “Plant response rating, Ragweed” value (ragweed [13]; [28]) was 60. The “Plant response rating, Ryegrass, Italian” value (ryegrass, Italian [14]; [27]) was 50, the “Plant response rating, Ryegrass, Italian” value (ryegrass, Italian [14]; [28]) was 90 and the “Plant response rating, Soybean” value (soybean [21]; [27]) was 100. For the same compound, the “Plant response rating, Soybean” value (soybean [21]; [28]) was 100, the “Plant response rating, Wheat” value (wheat [22]; [27]) was 10 and the “Plant response rating, Wheat” value (wheat [22]; [28]) was 30. For the same compound, the “Plant response rating, Galium” value (galium; [27]) was 80, the “Plant response rating, Galium” value (galium; [28]) was 100 and the “Plant response rating, Horseweed” value (horseweed; [27]) was 10. The “Plant response rating, Horseweed” value (horseweed; [28]) was 30.

For Cc1csc(-c2cccc(C(=O)N3C[C@H](C)Oc4c(C)cccc43)c2)c1 [Compound 245], the “Plant response rating, Barnyardgrass” value (barnyardgrass [1]; 1000 g ai/ha) was 20, the “Plant response rating, Blackgrass” value (blackgrass [2]; 1000 g ai/ha) was 0 and the “Plant response rating, Foxtail, Green” value (green foxtail [3]; 1000 g ai/ha) was 30. The “Plant response rating, Kochia” value (kochia [4]; 1000 g ai/ha) was 0, the “Plant response rating, Pigweed, Palmer” value (pigweed, palmer [5]; 1000 g ai/ha) was 20 and the “Plant response rating, Ryegrass, Italian” value (ryegrass, Italian [7]; 1000 g ai/ha) was 60. The “Plant response rating, Barnyardgrass” value (barnyardgrass [8]; [23]) was 0, the “Plant response rating, Blackgrass” value (blackgrass [9]; [24]) was 0 and the “Plant response rating, Foxtail, Green” value (green foxtail [10]) was 0. For the same compound, the “Plant response rating, Kochia” value (kochia [11]; [24]) was 0, the “Plant response rating, Pigweed, Palmer” value (pigweed, palmer [12]; [24]) was 0 and the “Plant response rating, Ragweed” value (ragweed [13]; [24]) was 10. The “Plant response rating, Ryegrass, Italian” value (ryegrass, Italian [14]; [24]) was 0, the “Plant response rating, Galium” value (galium; [24]) was 0 and the “Plant response rating, Horseweed” value (horseweed; [24]) was 30.
